Data taken from patent US11034656B2, “Maleate salts of (E)-N-(3-cyano-7-ethoxy-4-((4-phenoxyphenyl)amino) quinolin-6-yl)-4-(dimethylamino)but-2-enamide and crystalline forms thereof” (TELIGENE LTD, priority 2017, dated 2021).
Structures can show the parent of a compound that is named as a salt. Where two headings read alike, the source gives them in different places.

What was measured:
Hygroscopicity test = format: physicochemical; conditions: 25° C.±1° C., relative humidity 80%±2%, 24 hours, (m3−m2)/(m2−m1)*100%
Protocol: Hygroscopicity tests of ((E)-N-(3-cyano-7-ethoxy-4-((4-phenoxyphenyl)amino) quinolin-6-yl)-4-(dimethylamino)but-2-enamide in different acid salts have been carried out by the following method:
Take the dry glass weighing bottle which has a plug (outer diameter is 50 mm, high is 15 mm); placed in a suitable 25° C.±1° C. constant temperature dryer (place a saturated solution of ammonium chloride or ammonium sulfate in the lower part) or artificial climate box (set the temperature to 25° C.±1° C. and the relative humidity to 80%±2%) one day before the test, accurately weighting its weight (m1).
Take appropriate amount of the test sample and lay it in the above weighing bottle, the thickness of the test sample is generally 1 mm, accurately weighting its weight (m2).
Open the weighing bottle and place it at the constant temperature and humidity as above-mentioned for 24 hours with its plug.
Accurately weighting its weight (m3), including the weighing bottle and its plug. Percentage of weight gain=(m3−m2)/(m2−m1)*100%

[1] = Bioavailability in SD rats (I.V. and PO); format: in vivo; conditions: rat, blood, male, I.V. 5 mg/kg, PO 10 mg/kg via gavage
Crystallinity by PXRD = format: physicochemical
Protocol: PXRD is performed in Rigaku UltimaIV diffractometer, copper target, λ=1.5406 A; working voltage 40 kv; working current: 40 Ma; scan speed: 60.000 deg./min; scan range: 4.0000->60.0000 deg.

CCOc1cc2ncc(C#N)c(Nc3ccc(Oc4ccccc4)cc3)c2cc1NC(=O)/C=C/CN(C)C [Citrate salt, (E)-N-(3-cyano-7-ethoxy-4-((4-phenoxyphenyl)amino)quinolin-6-yl)-4-(dimethylamino)but-2-enamide Citrate]
weight gain (%) (Hygroscopicity test; Citrate): 27.04%
bioavailability [1]: 36.7%
Crystallinity by PXRD (Crystallinity by PXRD; Citrate): crystalline

CCOc1cc2ncc(C#N)c(Nc3ccc(Oc4ccccc4)cc3)c2cc1NC(=O)/C=C/CN(C)C [Hydrochloride acid salt, (E)-N-(3-cyano-7-ethoxy-4-((4-phenoxyphenyl)amino)quinolin-6-yl)-4-(dimethylamino)but-2-enamide Hydrochloride]
weight gain (%) (Hygroscopicity test; Hydrochloride): 46.67%
Crystallinity by PXRD (Crystallinity by PXRD): amorphous

CCOc1cc2ncc(C#N)c(Nc3ccc(Oc4ccccc4)cc3)c2cc1NC(=O)/C=C/CN(C)C [L-malate salt, (E)-N-(3-cyano-7-ethoxy-4-((4-phenoxyphenyl)amino)quinolin-6-yl)-4-(dimethylamino)but-2-enamide Malate]
weight gain (%) (Hygroscopicity test; Malate): 16.36%
Crystallinity by PXRD (Crystallinity by PXRD; Malate): amorphous

CCOc1cc2ncc(C#N)c(Nc3ccc(Oc4ccccc4)cc3)c2cc1NC(=O)/C=C/CN(C)C.O=C(O)/C=C\C(=O)O [Maleate salt, (E)-N-(3-cyano-7-ethoxy-4-((4-phenoxyphenyl)amino)quinolin-6-yl)-4-(dimethylamino)but-2-enamide Maleate]
weight gain (%) (Hygroscopicity test): 0.2%
bioavailability [1]: 49.6%
Crystallinity by PXRD (Crystallinity by PXRD): crytalline

CCOc1cc2ncc(C#N)c(Nc3ccc(Oc4ccccc4)cc3)c2cc1NC(=O)/C=C/CN(C)C [Sulphate salt, (E)-N-(3-cyano-7-ethoxy-4-((4-phenoxyphenyl)amino)quinolin-6-yl)-4-(dimethylamino)but-2-enamide Sulfate]
weight gain (%) (Hygroscopicity test; Sulfate): 36.13%
